From patent US12161698B2, “Synthetic platelets” (CASE WESTERN RESERVE UNIVERSITY, priority 2011, dated 2024)
No end group written: not given here.

Tests used:
[1] = test system: platelet-rich green fluorescent fibrin clot; assay: In vitro thrombolytic capacity in PPFC on platelet-rich fluorescent fibrin clots; assay type: cell-based; conditions: flow over clot
Procedure: Glass microscope slides were incubated with collagen suspension in a circular region for 30 min (similar to slide preparation for PPFC-based binding studies) and then gently washed with 1×PBS. PRP with AlexaFluor 488-conjugated fibrinogen (6% v/v of 1.5 mg/mL, green fluorescent) was briefly mixed with α-thrombin and 0.5 M CaCl2), to final concentrations of 5 nM and […] respectively, to initiate clot formation and the mixture was pipetted (100 μl volume) onto the collagen-coated surface region. The clot was allowed to incubate for 1 h and then gently washed with 1×PBS to remove loosely bound components. The slide thus formed with platelet-rich green fluorescent fibrin clot on its surface, was sealed into the parallel plate flow chamber (PPFC) system, to be imaged under the inverted fluorescence microscope. The objective was focused on an area at the edge of the clot such that the initial field of view enabled observation of the green fluorescence of the fibrin clot throughout the whole area of view, and the clot lysis could then be observed as the loss of this fluorescence. […] In this experimental set-up, sPLA2-triggered degradation of clot-bound PMIN vesicles and resultant SK release was expected to convert the plasminogen to plasmin and thereby lyse the fibrin of the clot.

[2] = test system: FeCl3-induced carotid artery thrombus; assay: Targeted thrombolysis in vivo (delay of vessel occlusion, FeCl3 carotid thrombosis); set-up: species or system mouse; conditions: ~400 IU SK where loaded, injected ~5 min after thrombus induction
Description: For targeted thrombolytic capacity assessment, Rhodamine 6G solution was first injected into the right jugular vein of the mouse to render direct fluorescent labeling of circulating platelets and the FeCl3-induced thrombus was created in the carotid as before, such that the formation of the thrombus and extent of vessel occlusion can be observed directly by monitoring the fluorescent platelets in the artery with intra-vital microscopy. For this, the carotid artery was thrombosed as before and […] of Rhodamine 6G solution was injected into the right jugular vein that results in direct fluorescent labeling of circulating platelets. This allows for imaging platelet-rich thrombus formation (and lysis) in real time. […] The effect of these various treatments on delaying the thrombus growth over time was imaged by intravital microscopy, with images recorded for 10 s every minute for the first 10 min and then 10 s every other minute until the end of the experiment. […] The end points of the experiment were: 1) when blood flow had ceased for >30 s due to vessel occlusion, or 2) if occlusion was not observed in 30 min after SK (free or vesicle-encapsulated) administration. […]

Row | Substance | activation of platelets by aggregometry (platelets) | time to clot lysis (loss of green fluorescence) [1] [min] | delay in vessel occlusion [2]
1 | TRYLRIHPQSWVHQI-NH2 [VBP] | inability of both VBP and CBP to activate platelets | – | –
2 | streptokinase [free SK] | – | ≤ 15 | keeps the artery significantly open due to persistent thrombolysis
